Data taken from US12559506B2, “Indazole based compounds and associated methods of use” (Arvinas Operations, Inc., priority 2021, dated 2026).
Read-outs that look alike come from different tables or passages of the source.

Molecular target: T1, LRRK2 (endogenous, HiBit tagged) (Homo sapiens, UniProt Q5S007)
T1 construct: endogenous in cells; host or cells: HEK293 cells with HiBit knock-in at the endogenous LRRK2 locus, stably expressing firefly luciferase
Test: Endogenous LRRK2 degradation assay, endogenous gene C-terminally HiBit-tagged in HEK293 cells (Nano-Glo Dual Luciferase)
Assay type: cell-based
In short: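 LRRK2-HiBit quantified via Nano-Glo Dual Luciferase in HEK293 knock-in cells co-expressing firefly luciferase, after 24 h exposure to compound (1 μM final top, 1:3, 11 points). Values normalised to DMSO median per plate and curve-fitted; Alamar Blue viability run alongside.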

[1] = endogenous HiBit-tagged LRRK2 in HEK293 cells, 24 hours treatment, read-out: **Endogenous WT Dmax (%)
[2] = endogenous HiBit-tagged LRRK2 in HEK293 cells, 24 hours treatment, read-out: *Endogenous WT DC50
[3] = endogenous HiBit-tagged LRRK2, HEK293 cells, 24 hours, read-out: **Endogenous WT Dmax (%)
[4] = endogenous HiBit-tagged LRRK2, HEK293 cells, 24 hours, read-out: *Endogenous WT DC50

T1 sequence (Q5S007 whole entry): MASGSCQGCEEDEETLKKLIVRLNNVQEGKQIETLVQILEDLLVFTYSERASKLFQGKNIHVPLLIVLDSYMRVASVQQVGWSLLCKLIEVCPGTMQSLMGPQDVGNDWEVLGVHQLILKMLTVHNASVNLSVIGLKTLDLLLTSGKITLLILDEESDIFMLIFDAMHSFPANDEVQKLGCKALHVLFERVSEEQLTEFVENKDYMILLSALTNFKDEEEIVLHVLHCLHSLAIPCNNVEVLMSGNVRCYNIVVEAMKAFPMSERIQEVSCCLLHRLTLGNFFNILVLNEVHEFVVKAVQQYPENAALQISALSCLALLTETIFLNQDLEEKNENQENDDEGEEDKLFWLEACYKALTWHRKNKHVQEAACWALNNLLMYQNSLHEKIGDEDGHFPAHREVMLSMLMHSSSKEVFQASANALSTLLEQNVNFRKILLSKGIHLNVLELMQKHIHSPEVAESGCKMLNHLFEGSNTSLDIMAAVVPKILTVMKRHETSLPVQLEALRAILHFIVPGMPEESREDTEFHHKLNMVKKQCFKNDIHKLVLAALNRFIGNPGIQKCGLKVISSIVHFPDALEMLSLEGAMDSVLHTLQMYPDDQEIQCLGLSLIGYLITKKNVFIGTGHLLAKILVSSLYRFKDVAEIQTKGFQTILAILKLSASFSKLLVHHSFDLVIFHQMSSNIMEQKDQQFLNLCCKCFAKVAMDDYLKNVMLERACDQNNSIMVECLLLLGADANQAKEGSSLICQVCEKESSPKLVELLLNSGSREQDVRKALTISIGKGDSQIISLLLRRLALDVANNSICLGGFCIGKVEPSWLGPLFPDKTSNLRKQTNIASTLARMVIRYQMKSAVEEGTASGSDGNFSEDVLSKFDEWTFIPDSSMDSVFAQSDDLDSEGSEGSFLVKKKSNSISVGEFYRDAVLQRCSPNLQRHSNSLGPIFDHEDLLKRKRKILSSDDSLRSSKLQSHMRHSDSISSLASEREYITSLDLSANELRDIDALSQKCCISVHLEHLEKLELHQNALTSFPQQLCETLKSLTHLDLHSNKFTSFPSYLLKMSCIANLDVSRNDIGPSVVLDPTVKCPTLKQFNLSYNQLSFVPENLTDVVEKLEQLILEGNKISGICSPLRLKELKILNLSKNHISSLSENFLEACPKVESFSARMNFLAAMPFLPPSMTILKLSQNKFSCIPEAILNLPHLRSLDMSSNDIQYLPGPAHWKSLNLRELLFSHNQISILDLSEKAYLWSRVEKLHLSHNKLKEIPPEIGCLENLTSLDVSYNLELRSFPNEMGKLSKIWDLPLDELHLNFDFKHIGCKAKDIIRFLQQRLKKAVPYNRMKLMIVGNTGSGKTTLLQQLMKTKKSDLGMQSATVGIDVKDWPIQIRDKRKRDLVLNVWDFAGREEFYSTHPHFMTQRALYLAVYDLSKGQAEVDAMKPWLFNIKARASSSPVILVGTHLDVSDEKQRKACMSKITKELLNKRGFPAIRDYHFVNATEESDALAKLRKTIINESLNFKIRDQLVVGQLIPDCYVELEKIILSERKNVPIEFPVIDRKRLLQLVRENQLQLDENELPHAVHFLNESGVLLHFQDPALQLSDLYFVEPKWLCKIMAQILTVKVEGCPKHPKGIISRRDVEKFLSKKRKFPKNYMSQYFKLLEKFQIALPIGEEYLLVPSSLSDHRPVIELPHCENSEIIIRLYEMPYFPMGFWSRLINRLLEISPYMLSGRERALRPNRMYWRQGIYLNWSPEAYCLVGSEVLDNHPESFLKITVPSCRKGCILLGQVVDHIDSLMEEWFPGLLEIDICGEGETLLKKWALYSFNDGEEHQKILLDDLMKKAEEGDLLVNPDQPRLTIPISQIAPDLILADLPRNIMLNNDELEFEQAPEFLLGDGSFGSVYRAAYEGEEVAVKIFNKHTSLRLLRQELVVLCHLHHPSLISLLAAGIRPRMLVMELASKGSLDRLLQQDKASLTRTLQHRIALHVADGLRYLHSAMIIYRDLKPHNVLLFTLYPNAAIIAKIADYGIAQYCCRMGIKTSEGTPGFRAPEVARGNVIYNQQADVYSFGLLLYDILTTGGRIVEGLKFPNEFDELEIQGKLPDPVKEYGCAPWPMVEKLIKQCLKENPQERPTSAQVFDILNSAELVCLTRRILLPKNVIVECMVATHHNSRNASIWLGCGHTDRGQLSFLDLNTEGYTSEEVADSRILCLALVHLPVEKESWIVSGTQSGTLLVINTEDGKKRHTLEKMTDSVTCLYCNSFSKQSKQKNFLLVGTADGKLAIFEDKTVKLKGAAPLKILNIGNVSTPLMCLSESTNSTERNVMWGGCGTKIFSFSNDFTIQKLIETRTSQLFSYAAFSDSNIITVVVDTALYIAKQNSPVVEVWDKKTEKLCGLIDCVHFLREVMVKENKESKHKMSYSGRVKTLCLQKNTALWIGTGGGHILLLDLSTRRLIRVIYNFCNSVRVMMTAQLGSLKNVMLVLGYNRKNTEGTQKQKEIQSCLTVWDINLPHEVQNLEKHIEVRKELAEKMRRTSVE

| Structure (SMILES) | Dmax [1] | DC50 [2] | also measured |
| --- | --- | --- | --- |
| C[C@H]1CN(CC2CCN(CC3CCN(c4cc(-c5n[nH]c6ccc(OC7(C)CC7)cc56)ncn4)CC3)CC2)CCN1c1ccc2c(c1F)CN(C1CCC(=O)NC1=O)C2=O (stereo partly drawn) [Compound 339, 3-{4-fluoro-5-[(2S)-2-methyl-4-({1-[(1-{6-[5-(1-methylcyclopropoxy)-1H-indazol-3-yl]pyrimidin-4-yl}piperidin-4-yl)methyl]piperidin-4-yl}methyl)piperazin-1-yl]-1-oxo-2,3-dihydro-1H-isoindol-2-yl}piperidine-2,6-dione] | 50 to 70% | < 10 nM | – |
| CC1(Oc2ccc3n[nH]c(-c4cc(N5CCC6(CC5)CN([C@H]5C[C@H](OC7CCN(c8ccc9c(c8F)CN(C8CCC(=O)NC8=O)C9=O)CC7)C5)C6)ncn4)c3c2)CC1 (some centres unmarked) [Compound 326, 3-(4-fluoro-1-oxo-5-{4-[(1r,3r)-3-(7-{6-[5-(1-methylcyclopropoxy)-2H-indazol-3-yl]pyrimidin-4-yl}-2,7-diazaspiro[3.5]nonan-2-yl)cyclobutoxy]piperidin-1-yl}-2,3-dihydro-1H-isoindol-2-yl)piperidine-2,6-dione] | 50 to 70% | < 10 nM | – |
| CC1(Oc2ccc3n[nH]c(-c4cc(N5CCN(CC6(F)CCN(CC7CCN(c8cc9c(cc8F)C(=O)N(C8CCC(=O)NC8=O)C9)CC7)CC6)CC5)ncn4)c3c2)CC1 (centres unmarked) [Compound 183, 3-[6-fluoro-5-[4-[[4-fluoro-4-[[4-[6-[5-(1-methylcyclopropoxy)-2H-indazol-3-yl]pyrimidin-4-yl]piperazin-1-yl]methyl]-1-piperidyl]methyl]-1-piperidyl]-1-oxo-isoindolin-2-yl]piperidine-2,6-dione] | – | – | Dmax [3]: ≥ 70%; DC50 [4]: < 10 nM |
| COc1c(N2CCC(CN3CCN(CC4CCN(c5cc(-c6n[nH]c7ccc(OC8(C)CC8)cc67)ncn5)CC4)C[C@@H]3C)CC2)ccc2c1CN(C1CCC(=O)NC1=O)C2=O (stereo partly drawn) [Compound 264, 3-[4-methoxy-5-(4-{[(2S)-2-methyl-4-[(1-{6-[5-(1-methylcyclopropoxy)-1H-indazol-3-yl]pyrimidin-4-yl}piperidin-4-yl)methyl]piperazin-1-yl]methyl}piperidin-1-yl)-1-oxo-2,3-dihydro-1H-isoindol-2-yl]piperidine-2,6-dione] | ≥ 70% | < 10 nM | – |
| CC1(Oc2ccc3n[nH]c(-c4cc(N5CCC(O[C@H]6C[C@H](N7CC[C@@H](c8ccc9c(c8)CN(C8CCC(=O)NC8=O)C9=O)[C@@H](F)C7)C6)CC5)ncn4)c3c2)CC1 (some centres unmarked) [Compound 342, 3-{5-[(3r,4s)-3-fluoro-1-[(1r,3r)-3-[(1-{6-[5-(1-methylcyclopropoxy)-2H-indazol-3-yl]pyrimidin-4-yl}piperidin-4-yl)oxy]cyclobutyl]piperidin-4-yl]-1-oxo-2,3-dihydro-1H-isoindol-2-yl}piperidine-2,6-dione] | 50 to 70% | < 10 nM | – |
| COc1c(N2CCC(O[C@H]3C[C@H](N4CC5(CCN(c6cc(-c7[nH]nc8ccc(OC9(C)CC9)cc78)ncn6)CC5)C4)C3)CC2)ccc2c1CN(C1CCC(=O)NC1=O)C2=O (some centres unmarked) [Compound 347, 3-(4-methoxy-1-oxo-5-{4-[(1r,3r)-3-(7-{6-[5-(1-methylcyclopropoxy)-2H-indazol-3-yl]pyrimidin-4-yl}-2,7-diazaspiro[3.5]nonan-2-yl)cyclobutoxy]piperidin-1-yl}-2,3-dihydro-1H-isoindol-2-yl)piperidine-2,6-dione] | 50 to 70% | < 10 nM | – |
| CC1(Oc2cc3c(-c4cc(N5CCN(CC6(F)CCN(CC7CCN(c8ccc9c(c8F)CN(C8CCC(=O)NC8=O)C9=O)CC7)CC6)CC5)ncn4)n[nH]c3cc2F)CC1 (centres unmarked) [Compound 189, 3-[4-fluoro-5-[4-[[4-fluoro-4-[[4-[6-[6-fluoro-5-(1-methylcyclopropoxy)-1H-indazol-3-yl]pyrimidin-4-yl]piperazin-1-yl]methyl]-1-piperidyl]methyl]-1-piperidyl]-1-oxo-isoindolin-2-yl]piperidine-2,6-dione] | – | – | Dmax [3]: ≥ 70%; DC50 [4]: < 10 nM |
| CC1(Oc2cc3c(-c4cc(N5CCC(CN6CCN(CC7CCN(c8cc9c(cc8F)C(=O)N(C8CCC(=O)NC8=O)C9)CC7)CC6)CC5)ncn4)n[nH]c3cn2)CC1 (centres unmarked) [Compound 191, 3-[6-fluoro-5-[4-[[4-[[1-[6-[5-(1-methylcyclopropoxy)-1H-pyrazolo[3,4-c]pyridin-3-yl]pyrimidin-4-yl]-4-piperidyl]methyl]piperazin-1-yl]methyl]-1-piperidyl]-1-oxo-isoindolin-2-yl]piperidine-2,6-dione] | – | – | Dmax [3]: ≥ 70%; DC50 [4]: < 10 nM |
| CC1(Oc2cc3c(-c4cc(N5CCC(CN6CC[C@@H](CN7CCN(c8ccc9c(c8F)CN(C8CCC(=O)NC8=O)C9=O)CC7)[C@@H](F)C6)CC5)ncn4)n[nH]c3cc2F)CC1 (some centres unmarked) [Compound 294, 3-[4-fluoro-5-(4-{[(3r,4s)-3-fluoro-1-[(1-{6-[6-fluoro-5-(1-methylcyclopropoxy)-1H-indazol-3-yl]pyrimidin-4-yl}piperidin-4-yl)methyl]piperidin-4-yl]methyl}piperazin-1-yl)-1-oxo-2,3-dihydro-1H-isoindol-2-yl]piperidine-2,6-dione] | 50 to 70% | < 10 nM | – |
| CC1(Oc2ccc3[nH]nc(-c4cc(N5CCC(CN6CCN(C(C)(C)C7CCN(c8ccc9c(c8F)CN(C8CCC(=O)NC8=O)C9=O)CC7)CC6)CC5)ncn4)c3c2)CC1 (centres unmarked) [Compound 309, 3-{4-fluoro-5-[4-(2-{4-[(1-{6-[5-(1-methylcyclopropoxy)-1H-indazol-3-yl]pyrimidin-4-yl}piperidin-4-yl)methyl]piperazin-1-yl}propan-2-yl)piperidin-1-yl]-1-oxo-2,3-dihydro-1H-isoindol-2-yl}piperidine-2,6-dione] | ≥ 70% | < 10 nM | – |
| COc1c(N2CCC(CN3CC[C@@H](OC4CCN(c5cc(-c6n[nH]c7ccc(OC8(C)CC8)cc67)ncn5)CC4)CC3(C)C)CC2)ccc2c1CN(C1CCC(=O)NC1=O)C2=O (stereo partly drawn) [Compound 319, 3-(5-(4-(((R)-2,2-dimethyl-4-((1-(6-(5-(1-methylcyclopropoxy)-1H-indazol-3-yl)pyrimidin-4-yl)piperidin-4-yl)oxy)piperidin-1-yl)methyl)piperidin-1-yl)-4-methoxy-1-oxoisoindolin-2-yl)piperidine-2,6-dione] | 50 to 70% | < 10 nM | – |
| C[C@H]1CN(c2cc(-c3[nH]nc4ccc(OC5(C)CC5)cc34)ncn2)CCN1CCN1CCN(CC2CCN(c3ccc4c(c3)CN(C3CCC(=O)NC3=O)C4=O)CC2)CC1 (stereo partly drawn) [Compound 65, 3-(5-{4-[(4-{2-[(2S)-2-methyl-4-{6-[5-(1-methylcyclopropoxy)-2H-indazol-3-yl]pyrimidin-4-yl}piperazin-1-yl]ethyl}piperazin-1-yl)methyl]piperidin-1-yl}-1-oxo-2,3-dihydro-1H-isoindol-2-yl)piperidine-2,6-dione] | – | – | Dmax (endogenous HiBit-tagged LRRK2 in HEK293 cells, 24 hours, read-out: **Endogenous WT Dmax (%)): ≥ 70%; DC50 (endogenous HiBit-tagged LRRK2 in HEK293 cells, 24 hours, read-out: *Endogenous WT DC50): < 10 nM |
| CC1(Oc2ccc3[nH]nc(-c4cc(N5CCC(OC6CCC7(CC6)CN(c6ccc8c(c6F)CN(C6CCC(=O)NC6=O)C8=O)C7)CC5)ncn4)c3c2)CC1 (centres unmarked) [Compound 374, 3-(4-fluoro-5-{7-[(1-{6-[5-(1-methylcyclopropoxy)-1H-indazol-3-yl]pyrimidin-4-yl}piperidin-4-yl)oxy]-2-azaspiro[3.5]nonan-2-yl}-1-oxo-2,3-dihydro-1H-isoindol-2-yl)piperidine-2,6-dione] | – | – | DC50 (endogenous HiBit-tagged LRRK2 in HEK293 cells, 24 hours treatment, read-out: Endogenous WT DC50): < 10 nM; Dmax (endogenous HiBit-tagged LRRK2 in HEK293 cells, 24 hours treatment, read-out: Endogenous WT Dmax): 50 to 70% |
